From article PMC7571124 (Molecules, 2020)
Like-named read-outs stand apart in the source and are kept apart here. Residues, ends and D or L forms follow the SMILES beside them.

Tests used:
[1] = target: neuraminidase of A/CHK/MX/1994 H5N2 (Influenza A virus, UniProt Q0A2F2); assay type: biochemical, Influenza A virus A/Chicken/Mexico/31381-7/1994 (H5N2)
[2] = system: avian influenza A A/CHK/MX/1994 H5N2 virus; assay: microbe, parasite or virus in culture; assay type: cell-based; settings: for IC50: read-out: IC50 of viral replication inhibition
in vitro = settings: dog
[3] = target: T1, neuraminidase of A/PR/8/34 H1N1 (Influenza A virus, UniProt P03468); assay: biochemical; assay type: biochemical, Influenza A virus A/Puerto Rico/8/34 (H1N1)
T1 construct: Samples of cell supernatant infected with whole virus were used as source of enzymes; host or cells: MDCK cells infected with the virus; clarified culture supernatant

MDCK cells = settings: dog

Question: For “3-(propylaminosulfonyl)-4-chlorobenzoic acid [STL]”, which IC50 [1] is on record?
Answer: 24.8 ± 1.3 mM

Question: And the “inhibition of viral replication (lytic plaques)” value (“inhibition of viral replication” for short) ([2]; at 100 μM)?
Answer: losing this effect

Question: And the “inhibition of viral replication” value ([2]; at 1 mM)?
Answer: completely inhibited

Question: For `CSCCC(NC(=O)C(Cc1ccccc1)NC(C)=O)C(=O)O` (stereo not drawn) [AAMOL, N-acetylphenylalanylmethionine] (Ac-Phe-Met-OH; configuration not given here), which inhibition mechanism [1] is on record?
Answer: competitive

Question: What about the CC50 (in vitro) of the same compound?
Answer: 0.016 ± 0.0015 mM

Question: And the IC50 [3]?
Answer: 57 ± 1.1 mM

Question: And the Ki [3]?
Answer: 15.3 mM

Question: What about the inhibition mechanism [3] of the same compound?
Answer: competitive

Question: What about the “inhibition of viral replication” value ([2]; at 1 μM) of the same compound?
Answer: no inhibition effect was observed

Question: For `O=C1O[C@H]([C@@H](O)CO)C(O)=C1O` [CIV, ascorbic acid], which CC50 (MDCK cells) is on record?
Answer: 0.00055 ± 0.0011 mM

Question: What about the inhibition mechanism [1] of the same compound?
Answer: noncompetitive

Question: What about the CC50 (in vitro) of the same compound?
Answer: 0.0003 mM

Question: What about the IC50 [3] of the same compound?
Answer: 32 ± 1.5 mM

Question: What about the Ki [3] of the same compound?
Answer: 26.4 mM

Question: And the inhibition mechanism [3]?
Answer: noncompetitive

Question: What about the “inhibition of viral replication” value ([2]; at 1 μM) of the same compound?
Answer: no inhibition effect was observed

Question: For `Cc1ccc(C)c(NC(=O)CC(C(=O)O)N2CCNCC2)c1` (stereo not shown) [FMOL, propanoic 3-[(2,5-dimethylphenyl)carbamoyl]-2-(piperazin-1-yl) acid], which “inhibition of viral replication” value ([2]; at 100 μM) is on record?
Answer: affected the size and number of plaques

Question: And the “inhibition of viral replication” value ([2]; at 1 mM)?
Answer: affected the size and number of plaques

Question: Which results are given for `CC(=O)N[C@H]1[C@H]([C@H](O)[C@H](O)CO)O[C@@](Oc2ccc3c(C)cc(=O)oc3c2)(C(=O)O)C[C@@H]1O` [MUNANA, 2′-O-(4-methylumbelliferyl)-α-dN-acetylneuraminic acid]?
Answer: Km [1]: 106 µM; Vmax [1]: 5.2 µmol/min; Km [3]: 142 µM; Vmax [3]: 2.77 µmol/min

Question: Which inhibition mechanism [1] does the source give for `CCCN(CCC)S(=O)(=O)c1ccc(C(=O)O)cc1` [ORP, 4-(dipropylsulfamoyl) benzoic acid] here?
Answer: competitive

Question: What about the IC50 [3] of the same compound?
Answer: 23 ± 1.2 mM

Question: What about the Ki [3] of the same compound?
Answer: 10.5 mM

Question: What about the inhibition mechanism [3] of the same compound?
Answer: competitive

Question: What about the IC50 ([2]; Influenza A virus, H5N2, MDCK, in Canis lupus familiaris) of the same compound?
Answer: 0.157 mM

Question: What about the “inhibition of viral replication” value ([2]; at 1 mM) of the same compound?
Answer: only lowered the number of plaques

Question: Which results are given for `CC(=O)N[C@H]1[C@H]([C@H](O)[C@H](O)CO)OC(C(=O)O)=C[C@@H]1N=C(N)N` [Zanamivir, zanamivir]?
Answer: inhibition mechanism [1]: competitive; lytic plaque formation [2]: not detected; IC50 [2]: 0.000741 mM
